{"source": "patent US20140348748A1", "about": "“BETA-AMYLOID IMAGING AGENTS, METHODS OF MANUFACTURE, AND METHODS OF USE THEREOF” (priority 2011, published 2014)", "key": {"[1]": {"molecular_target": "beta-amyloid plaques in AD brain tissue (Homo sapiens, UniProt P05067)", "sequence (P05067 672-711 limits assumed)": "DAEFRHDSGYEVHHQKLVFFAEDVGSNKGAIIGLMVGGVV", "experiment": "In vitro binding assay: competitive displacement of [3H]6-OH-BTA-1 in AD brain homogenate", "conditions": "for Ki: [3H]6-OH-BTA-1 as reference radioligand, AD brain tissue", "method": "AD brain tissue was homogenized at 1:500 in PBS, and 800 μL suspension was used in each tube. [^3H]6-OH-BTA-1 with a concentration of 1 mCi/mL stock solution was diluted using ethanol to give an intermediate solution of 1 μCi/100 μL, which was further diluted using PBS to result in a dilute stock solution of 2.7×10^−2 μCi/100 μL, and 100 μL was used in each tube (2 vials with 100 μL of [^3H]6-OH-BTA-1 each and scintillation fluid as references). Cold 6-OH-BTA-1 or other displacer was dissolved in ethanol to result in a stock solution of 1×10^−3 M, which was further diluted using PBS or ethanol to result in solutions with concentrations ranging from 1×10^−5 to 10^−10 M, and 100 μL was used in each tube. After assembly, the tubes were vortexed, and incubated for 3 hrs at room temperature. After separation using a cell harvester, the filter paper (GF/B filter paper pretreated with 0.5% polyimine solution) was washed with 10% ethanol in PBS (3×3 mL). The filters were placed into 20 mL glass vials and 10 mL scintillation fluid each was added. After overnight incubation, the samples were counted. The data were analyzed using GraphPad Prism 4 or KaleidaGraph 3.6. […]\nSome lipophilic ligands required ethanol in the medium to increase their solubility and to effect displacement of reference radioligand. […] This displacement curve was also analyzed using a homologous displacement mathematical model to extract the Bmax of the amyloid plaques. The measured Bmax is linear with the amount of amyloid used in the experiment. The ratio between Bmax and the amount of Aβ1-42 monomer measured by ELISA is about 1:2, somewhat less than that reported previously. […]\nIn this table, Ki is a measure (in nM units) of the binding affinity of the compound toward beta-amyloid plaques in AD brain tissue, measured through a competitive radioligand displacement in vitro assay using [^3H]6-OH-BTA-1 as the reference radioligand. The lipophilicity of the compound is represented by c Log D7.4 which is calculated through a software package (ACD/Log D version 8.0) at pH=7.4, a close mimic of physiological conditions. […]"}, "[2]": {"experiment": "Evaluation of radioligands in monkey in vivo with PET", "parameters": "species or system rhesus monkey", "conditions": "for brain uptake and washout (PET time-activity curves): intravenous, 18F-labelled", "method": "A male rhesus monkey (15 kg) was initially immobilized with ketamine (15 mg/kg) and subsequently anesthetized with isoflurane (1.5%) for the duration of the experiment. The monkey was placed prone in the PET camera (HRRT, Siemens/CPS, Knoxyille, Tenn., USA). A fixation device was used to secure the monkey's head during scanning. A urinary catheter was inserted and clamped so that the activity overlaying the bladder represented the total urinary excretion during the scan. Electrocardiogram, body temperature, heart and respiration rates were measured throughout the experiment. Body temperature was controlled and monitored by a forced-air temperature management unit (Bair Hugger Model 505; Arizant Healthcare Inc.; MN, USA). The scanner consisted of eight flat panel detectors with a transaxial and axial coverage of 31.2 cm and 25.2 cm, respectively. The scanner is also equipped with dual-layered phoswich detector allowing depth-of-interaction. Dynamic PET scans were acquired in 64-bit list mode format, following the intravenous administration of Compound 1.6 (2.9 mCi). The scan lasted for 2 hours containing 33 frames with duration ranging from 30 seconds to 5 minutes. Data were reconstructed into a 256×256×207 image matrix (voxel size 1.21×1.21×1.23 mm), using a 3D list mode OSEM algorithm. The reconstructed image resolution was 2.5 mm. Transmission scan was acquired with a rotating ^137Cs point source for 6 minutes and used to correct for attenuation. A model-based scatter correction was applied. Tomographic images were analyzed with PMOD 2.6. Time activity curves (FIGS. 4-6) were calculated in % SUV for volume of interest (VOIs), defined by co-registration with MRI (see below), and compared for uptake and washout between different brain regions.\nCo-registration of PET Data with MRI. All frames of the original reconstructed PET data were summed and then co-registered to a T1-weighted magnetic resonance (MR) image acquired separately on a 1.5 T Signa MR scanner (GE Medical Systems) with image analysis software MEDx (Sensor Systems Inc.; Sterling, Va., U.S.A.). The summed PET image was fused with the co-registered MR image with an image fusion tool in PMOD. Several VOIs for the source organs were then manually defined on this fused image with anatomical structures identified on the MR image."}, "[3]": {"test_system": "amyloid plaques in AD brain tissue slides", "experiment": "Autoradiography on post mortem human brain tissue slides", "type": "binding", "conditions": "for binding in AD brain tissue slides (autoradiography): amyloid-loaded gray matter region; for radioactivity on healthy brain tissue (autoradiography): normal control brain tissue slides", "method": "Coronal sections of cerebrum from a confirmed case of AD (person, postmortem interval (PMI) 47.5 hours) and a normal control (person, PMI 28.5 hours) were frozen rapidly in an equal mixture of dry ice and isopentane, sealed in a plastic bag and stored at −76° C. before sectioning. Frozen blocks of the medial temporal lobe (hippocampal region) were sectioned at a thickness of 14 μm, mounted on gelatin-coated glass slides, dried and stored under desiccant at −76° C. Before use, slide-mounted tissue sections were removed from the freezer, thawed at room temperature for 20 min, and air-dried. Compounds 1.6, 1.5 and 1.4 (1.0 mg) were dissolved in DMSO (3.529 mL) resulting in a stock solution of 1 mM, which was then further diluted with DMSO to 0.1 mM and then diluted with PBS to 1 μM. The AD tissue and normal tissue slides were pretreated with either a stock solution of Compounds 1.6, 1.5, and 1.4 or PBS for 20 min at room temperature. All slides were incubated for 20 min at room temperature in [^11C]PIB formulation solution (0.3 mCi). They were then dipped in ethanol for 5 min. The slides were dried on a hot plate with a stream of cold air and placed in a cassette with the exposed sides facing up. The phosphor imaging plate was held with the blue side down. The entire cassette was placed in the dark at room temperature overnight for ^11C-labeling. Digital autoradiography was acquired using a FUJI BAS 5000 phosphorimager (FUJI, Tokyo, Japan) with a resolution of 25 μm."}, "[4]": {"conditions": "after intravenous injection into rodent or monkey; cited from earlier work"}}}
{"smiles": "CNc1ccc(-c2nc3ccc(O)cc3s2)cc1", "note": "[Compound 6-OH-BTA-1, 2-[4-(methylamino)phenyl]-6-hydroxybenzothiazole, reference compound]", "values": [{"measurement": "displacement of reference radioligand", "setting": "[1]; [3H]6-OH-BTA-1 displaced by non-radioactive ligand, isolated amyloid plaques", "value": "> 95", "unit": "%"}]}
{"smiles": "CNc1ccc(-c2nc3ccc(O)cc3s2)nc1F", "note": "[Compound 1.6, 2-(6-Fluoro-5-(methylamino)pyridin-2-yl)benzo[d]thiazol-6-ol]", "values": [{"measurement": "pharmacokinetics compared among the three radioligands", "setting": "[2]; normal male rhesus monkey, PET", "value": "most promising pharmacokinetics"}, {"measurement": "brain uptake and washout (PET time-activity curves)", "setting": "[2]; normal male rhesus monkey", "value": "entered the brain very well and washed out fast"}, {"measurement": "time to uniform distribution of radioactivity after injection", "setting": "[2]; normal monkey, PET", "value": "less than 1 hour"}, {"measurement": "binding in AD brain tissue slides (autoradiography)", "setting": "[3]", "value": "clear displaceable binding"}, {"measurement": "radioactivity on healthy brain tissue (autoradiography)", "setting": "[3]", "value": "no radioactivity was observed"}, {"measurement": "binding with amyloid plaques from autoradiography", "setting": "[3]; summary statement", "value": "specific binding"}, {"measurement": "Ki", "setting": "[1]", "value": 20, "unit": "nM"}]}
{"smiles": "CN(CCC[18F])c1ccc(-c2cn3cc(I)ccc3n2)cc1", "note": "[[^18F]FPM-IMPY]", "values": [{"measurement": "SUV (standardized uptake value) of radioactivity in brain", "setting": "[4]", "value": "about 160 % I.D. kg/g"}]}
{"smiles": "CN(CCF)c1ccc(-c2cn3cc(I)ccc3n2)cc1", "note": "[[^18F]FEM-IMPY, N-(2-fluoroethyl)-4-(6-iodo-H-imidazo[1,2-a]pyridin-2-yl)-N-methylbenzeneamine]", "values": [{"measurement": "SUV (standardized uptake value) of radioactivity in brain", "setting": "[4]", "value": "about 160 % I.D. kg/g"}]}
{"smiles": "CNc1ccc(-c2nc3ccc(OC)cc3s2)nc1F", "note": "[Compound 1.5, 2-Fluoro-6-(6-methoxybenzo[d]thiazol-2-yl)-N-methylpyridin-3-amine]", "values": [{"measurement": "brain uptake and washout (PET time-activity curves)", "setting": "[2]; normal male rhesus monkey", "value": "entered the brain very well and washed out fast"}, {"measurement": "binding in AD brain tissue slides (autoradiography)", "setting": "[3]", "value": "clear displaceable binding"}, {"measurement": "radioactivity on healthy brain tissue (autoradiography)", "setting": "[3]", "value": "no radioactivity was observed"}, {"measurement": "Ki", "setting": "[1]", "value": 10, "unit": "nM"}]}
